Entries after “also recorded” stand apart in the source; their conditions may differ. Numbered stars: 1 amine (or outer) side, 2 acyl side, 3 side chain; on linkers, the order of the positions; unused ones are H or OH. Square brackets hold non-standard residues; d marks the D form. Side chains are listed from the residue outwards. Peptide text beside a SMILES is read from it. * marks the point of attachment. Isobutyryl(2-(3-CN-5-F-Ph)) = CC(C)(C(=O)*)c1cc(F)cc(C#N)c1; C20 diacid = O=C(O)CCCCCCCCCCCCCCCCCCC(=O)*; γGlu = O=C(O)[C@H](CCC(=O)[*:2])N[*:1]; AEEA = NCCOCCOCC(=O)O; Aib = CC(C)(N)C(=O)O; βAla = NCCC(=O)O
Experiment: Phase 1 MD Cohorts 11 and 12: safety, tolerability, disposition
Assay type: in vivo, human
Protocol: The primary objective of this study is to determine the safety and tolerability of CT-388 in participants with and without type 2 diabetes mellitus (T2DM) when administered once weekly over 12 consecutive weeks for Cohorts 11 and 14 with titrated dosing (and additionally, up to 24 weeks for Cohorts 12 and 13).
The cohorts in the MD QW study are as follows. • Cohort 11: Once weekly dose administered SC in the abdomen across 12 consecutive weeks with CT-388 or matched placebo doses of 5.0 mg administered for the first 3 weeks and then titrated to 8.0 mg for the duration of the treatment period. If a participant(s) experiences moderate to severe tolerability issues after the third dose of 5 mg, the same 5 mg dose may be continued for up to an additional 2 weeks, i.e., up-titration to 8 mg may be attempted after the fourth or fifth 5 mg dose. If participant(s) still unable to tolerate 8 mg by Day 36, then that participant(s) may continue at 5 mg for the remaining duration of the treatment period. • Cohorts 12 and 13: Once weekly dose administered SC in the abdomen titrated across 12 consecutive weeks with CT-388 or matched placebo doses of: • 5.0 mg at Day 1 and Day 8 • 8.0 mg at Day 15 and Day 22 • 12.0 mg (or 8.0 mg based on tolerability) at Day 29 and Day 36 • 17.0 mg (or 12.0 mg based on tolerability) at Day 43 and Day 50 • 22.0 mg (or 12.0 mg or 17.0 mg based on tolerability) at Day 57. • If at 22 mg on Day 57, continue that dose for the duration of the treatment period. • If at 12 mg or 17 mg on Day 57, titration to the corresponding next higher dose level may be attempted on a weekly basis based on the individual's tolerability (e.g., if on Day 57, 12 mg dose was administered and tolerated, on Day 64, dose of 17 mg may be attempted). • If not able to tolerate, continue at the previously tolerated dose level until the following week (e.g., to Day 71), at which point another attempt can be made to the next higher dose level. • Attempts to the next higher dose level can continue to be made until Day 78. The dose level achieved at Day 78 should be maintained for an additional 12 weeks of weekly dosing in the extension period, resulting in a cumulative of 24 weeks of total doses for participants in Cohorts 12 and 13. At any time during the extension period, if the maintenance dose is not tolerated, then that dose may be either lowered by one corresponding dose level (e.g., if at 22 mg, decrease to 17 mg; if at 17 mg decrease to 12 mg), and/or the dosing may be withheld for up to 2 weeks. Following this temporary dose adjustment/withholding period, attempt to titrate back up to the previous (higher) dose level should be made. […]

[1] = Cohort 12, planned target 22 mg

CC[C@H](C)[C@H](NC(=O)[C@H](CC(C)C)NC(=O)[C@H](Cc1c[nH]c2ccccc12)NC(=O)[C@H](CCC(N)=O)NC(=O)[C@@H](NC(=O)[C@H](Cc1ccccc1)NC(=O)[C@H](C)NC(=O)[C@H](CCCCNC(=O)COCCOCCNC(=O)COCCOCCNC(=O)CC[C@H](NC(=O)CCCCCCCCCCCCCCCCCCC(=O)O)C(=O)O)NC(=O)[C@H](CCC(N)=O)NC(=O)[C@H](C)NC(=O)[C@@H](NC(=O)[C@H](CCCCN)NC(=O)[C@H](CC(=O)O)NC(=O)[C@H](CC(C)C)NC(=O)C(C)(C)NC(=O)[C@@H](NC(=O)[C@H](CO)NC(=O)[C@H](Cc1ccc(O)cc1)NC(=O)[C@H](CC(=O)O)NC(=O)[C@H](CO)NC(=O)[C@@H](NC(=O)[C@H](Cc1ccccc1)NC(=O)[C@@H](NC(=O)CNC(=O)[C@H](CCC(=O)O)NC(=O)CCNC(=O)C(C)(C)c1cc(F)cc(C#N)c1)[C@@H](C)O)[C@@H](C)O)[C@@H](C)CC)[C@@H](C)CC)C(C)C)C(=O)N[C@@H](C)C(=O)NCC(=O)NCC(=O)N1CCC[C@H]1C(=O)N[C@@H](CO)C(=O)N[C@@H](CO)C(=O)NCC(=O)N[C@@H](C)C(=O)N1CCC[C@H]1C(=O)N1CCC[C@H]1C(=O)N1CCC[C@H]1C(=O)N[C@@H](CO)C(N)=O [CT-388] ({Isobutyryl(2-(3-CN-5-F-Ph))-βAla}-EGTFTSDYSI[Aib]LDKIAQK([AEEA-AEEA-γGlu-C20 diacid])AFVQWLIAGGPSSGAPPPS-NH2)
SAEs or severe treatment related GI-related AEs (CT-388 participants, up to 24 weeks): No SAEs or severe treatment related GI-related AEs; also recorded: No SAEs or severe treatment related GI-related TEAE
patients dosed per planned path and completed treatment on 22 mg [1]: 75%
patients with dose down-titration who completed treatment on 12 mg [1]: 25%
safety and tolerability (up to 24 weeks of treatment, up to 22 mg SC QW): generally safe and well-tolerated
